Structure (SMILES): O=C(O)CC(O)C(=O)O (stereo unspecified)
- solubility (mole fraction) (in ethanol, 298.15 K): 0.109
- solubility (mole fraction) (in ethanol, 303.15 K): 0.12
- solubility (mole fraction) (in ethanol, 308.15 K): 0.136
- solubility (mole fraction) (in ethanol, 313.15 K): 0.148
- solubility (mole fraction) (in ethanol, 318.15 K): 0.165
- solubility (mole fraction) (in ethanol, 323.15 K): 0.184
- solubility (mole fraction) (in ethanol, 328.15 K): 0.207
- solubility (mole fraction) (in ethanol, 333.15 K): 0.227
- solubility (mole fraction) (in water, 298.15 K): 0.15
- solubility (mole fraction) (in water, 303.15 K): 0.161
- solubility (mole fraction) (in water, 308.15 K): 0.178
- solubility (mole fraction) (in water, 313.15 K): 0.196
- solubility (mole fraction) (in water, 318.15 K): 0.213
- solubility (mole fraction) (in water, 323.15 K): 0.229
- solubility (mole fraction) (in water, 328.15 K): 0.249
- solubility (mole fraction) (in water, 333.15 K): 0.271

— BigSolDB 2.1
